Laboratory results as given in PubChem BioAssay (NCI).
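Assay format: 96-well plates, 48-hour exposure. TGI denotes the concentration required for complete inhibition of growth.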 Where a SMILES comes first, the peptide text is derived from it. The star is where a group is joined. Boc = CC(C)(C)OC(=O)*; OBn = c1ccc(CO*)cc1

How the values were obtained:
Assay in all cases: NCI tumour cell line growth inhibition, 48 h
[1] = system: MALME-3M melanoma
[2] = system: U251 CNS
[3] = system: OVCAR-5 ovarian
[4] = system: SF-295 CNS
[5] = system: OVCAR-4 ovarian
[6] = system: SK-MEL-5 melanoma
[7] = system: SF-268 CNS
[8] = system: SW-620 colon
[9] = system: KM12 colon
[10] = system: MCF7 breast
[11] = system: SNB-75 CNS
[12] = system: SN12C renal
[13] = system: HOP-92 NSCLC
[14] = system: UACC-62 melanoma
[15] = system: HT29 colon
[16] = system: NCI/ADR-RES ovarian
[17] = system: MOLT-4 leukemia
[18] = system: PC-3 prostate
[19] = system: MDA-MB-231 breast
[20] = system: M14 melanoma

Row | SMILES | TGI [1] | TGI [2] | TGI [3] | TGI [4] | TGI [5] | TGI [6] | TGI [7] | TGI [8] | TGI [9] | TGI [10] | TGI [11] | TGI [12] | TGI [13] | TGI [14] | TGI [15] | TGI [16] | TGI [17] | TGI [18] | TGI [19] | TGI [20]
1 | O=C1c2ccccc2C(O)(C(=O)O)C1(O)CC=C(Cl)Cl (centres undefined) | > 125 µM | > 125 µM | > 125 µM | > 125 µM | > 125 µM | > 125 µM | > 125 µM | > 125 µM | > 125 µM | > 125 µM | > 125 µM | > 125 µM | > 117 µM | > 125 µM | > 125 µM | > 125 µM | > 125 µM | – | – | –
2 | CC(C)C(NC(=O)C(Cc1ccccc1)NC(=O)OC(C)(C)C)C(=O)NCC(=O)OCc1ccccc1 (stereo not drawn) (Boc-Phe-Val-Gly-OBn; configuration not given here) | 37.5 µM | 32.2 µM | 28.7 µM | 34.6 µM | 58.8 µM | – | 28.2 µM | 29.1 µM | – | – | 36 µM | 34.5 µM | – | 30.9 µM | 38.5 µM | > 100 µM | 39.7 µM | 29.5 µM | 32.3 µM | 36.5 µM
3 | CCOC(=O)C(C(=O)OCC)=C1NC2(c3ccccc3Nc3ccc(C)cc32)C(C#N)S1 (centres undefined) | 30.7 µM | 17.9 µM | 27.7 µM | 58.7 µM | 40.7 µM | 20 µM | 36.2 µM | 30.3 µM | 41.3 µM | 11.9 µM | 64.3 µM | 8.68 µM | 14.2 µM | 26.8 µM | 15.1 µM | 25.7 µM | 5.76 µM | 13.7 µM | – | 17.6 µM
4 | CO[C@H]1c2cccc3cccc(c23)[C@@H]1n1[nH]c(=O)n(C(C)(C)C)c1=O | > 100 µM | > 100 µM | > 100 µM | – | > 100 µM | – | > 100 µM | > 100 µM | > 100 µM | > 100 µM | > 100 µM | > 100 µM | – | > 100 µM | > 100 µM | > 100 µM | > 100 µM | > 100 µM | > 100 µM | > 100 µM
5 | CC(=O)O[C@@H]1CC[C@@]2(C)C(CC[C@H]3[C@@H]4CC[C@H]([C@H](C)CCc5nc6ccc(C)cc6[nH]5)[C@@]4(C)CC[C@@H]32)C1 (some centres undefined) | – | > 100 µM | > 100 µM | > 100 µM | > 100 µM | > 100 µM | > 100 µM | > 100 µM | 31.7 µM | > 100 µM | 24.1 µM | > 100 µM | > 100 µM | > 100 µM | 70.7 µM | > 100 µM | > 100 µM | > 100 µM | 55.3 µM | > 100 µM
6 | COC(=O)C(Cc1cn(C(C)=O)c2ccccc12)P(=O)(OC)OC (centres undefined) | – | > 100 µM | > 100 µM | > 100 µM | > 100 µM | > 100 µM | > 100 µM | > 100 µM | > 100 µM | > 100 µM | > 100 µM | > 100 µM | > 100 µM | > 100 µM | > 100 µM | > 100 µM | – | > 100 µM | > 100 µM | > 100 µM
7 | CC(=O)Oc1cc2c(n(C)c1=O)-c1ccccc1C2 | > 100 µM | > 100 µM | > 100 µM | > 100 µM | > 100 µM | > 100 µM | > 100 µM | 65.9 µM | > 100 µM | – | > 100 µM | > 100 µM | > 100 µM | > 100 µM | > 100 µM | 58.3 µM | > 100 µM | > 100 µM | > 100 µM | > 100 µM
8 | O=C(Nc1cccc2ccccc12)Nn1cnnc1 | > 100 µM | > 100 µM | > 100 µM | > 100 µM | > 100 µM | > 100 µM | > 100 µM | > 100 µM | > 100 µM | > 100 µM | > 100 µM | > 100 µM | > 100 µM | > 100 µM | > 100 µM | – | > 100 µM | > 100 µM | – | > 100 µM
9 | O=C(O)c1ccc(P(=O)(O)c2ccc(C(=O)O)cc2Br)c(Br)c1 | – | – | – | > 100 µM | – | > 100 µM | > 100 µM | > 100 µM | > 100 µM | > 100 µM | > 100 µM | > 100 µM | > 100 µM | > 100 µM | – | – | > 100 µM | > 100 µM | > 100 µM | > 100 µM
10 | COc1c2nc(CCl)[nH]c(=O)c2c(OC)c2nc(CCl)[nH]c(=O)c12 | > 100 µM | > 100 µM | > 100 µM | > 100 µM | > 100 µM | > 100 µM | > 100 µM | > 100 µM | > 100 µM | – | > 100 µM | > 100 µM | > 100 µM | > 100 µM | > 100 µM | – | > 100 µM | – | – | > 100 µM
11 | ClC1(Cl)C(c2ccccc2)C1c1ccccc1 (centres undefined) | – | > 100 µM | > 100 µM | 82.3 µM | > 100 µM | – | > 100 µM | > 100 µM | > 100 µM | > 100 µM | > 100 µM | > 100 µM | – | > 100 µM | – | 30.8 µM | > 100 µM | > 100 µM | > 100 µM | 90.7 µM
12 | COc1ccc2c(c1)/C(=C\c1c(C)nc3n1CCS3)C(=O)N2 | – | 60 µM | > 100 µM | 98.9 µM | – | > 100 µM | – | > 100 µM | > 100 µM | > 100 µM | > 100 µM | 73.8 µM | > 100 µM | > 100 µM | > 100 µM | > 100 µM | > 100 µM | 55.2 µM | > 100 µM | 93.7 µM
13 | COc1cc(/C=C(\C#N)c2nc3ccccc3o2)ccc1O | 56.3 µM | 36.2 µM | 61.2 µM | 36.8 µM | 40.7 µM | 36.3 µM | 50.7 µM | – | 37.7 µM | > 100 µM | – | > 100 µM | 50.8 µM | 40.5 µM | 48.1 µM | 64.3 µM | > 100 µM | 66.4 µM | 68.5 µM | 54.6 µM
